Measurements: patent US6774121B1, “Phospholipid prodrugs of anti-proliferative drugs” (D-Pharm, Ltd., priority 1999, dated 2004)
Where two headings read alike, the source gives them in different places.

Key:
[1] = tested on: RFC-mediated MTX-resistant cell line (L1210-MTX); test: MTT cytotoxicity, L1210-MTX cells (Example 9); type: cell-based; details: Mus musculus
[2] = tested on: MTX-resistant mutant cells, CEM-MTX; test: MTT cytotoxicity with and without Leucovorin, CEM-MTX cells (Example 6); type: cell-based; details: Homo sapiens, 72 hours
Procedure: (§1) Leucovorin is a reduced folate, used in chemotherapy with high doses of methotrexate for ‘rescue’ of host from toxicity.
(§2) Wild type human leukemia CEM cells or the MTX-resistant mutant cells, CEM-MTX, were plated into 96 well plates containing RPMI, 10% FCS at a concentration of 5×10^4 cells/ml. […] Leucovorin, at a final concentration of 10 μM, was added to some of the plates as indicated. The plates were incubated for 72 hours (37° C., 5% CO2) before being assayed for viability using the colorimetric MTT assay (Mosmann (1983) J. Immunol Methods 65: 55-63).

[3] = tested on: Wild type human leukemia CEM cells; test: MTT cytotoxicity with and without Leucovorin, CEM cells (Example 6); type: cell-based; details: CCRF-CEM, 72 hours
Procedure: as §1, §2

[4] = tested on: C6; test: MTT cytotoxicity on tumor cell lines, C6 (Example 8); type: cell-based; details: C6, Glioma (rat), 72 hours
Procedure: (§3) Cell viability was analyzed after 72 hours incubation (37° C., 5% CO2) using the colorimetric MTT assay (Mosmann (1983) J. Immunol Methods 65: 55-63).

[5] = tested on: CEM; test: MTT cytotoxicity on tumor cell lines, CEM (Example 8); type: cell-based; details: CCRF-CEM, T-cell ALL (human), 72 hours
Procedure: as §3

[6] = tested on: A431; test: MTT cytotoxicity on tumor cell lines, A431 (Example 8); type: cell-based; details: A-431, A431, Epidermoid carcinoma (human), 72 hours
Procedure: as §3

[7] = tested on: L1210 murine leukemia cells; test: Survival of mice transplanted i.p. with L1210 leukemia cells; type: in vivo, mouse
Procedure: The anti-tumor effects of DP-MTX were evaluated in vivo on mice transplanted with L1210 murine leukemia cells.
Mice of strain B6D2F 1/J (stock number 100006), which are F1 cross of C57/BJ×DBA/2J, were purchased from The Jackson Laboratory (JAX Mice & Mouse Model Related Services, […], USA). Animals were allowed 10 days adjustment time at our animal care facility before initiation of the experiment.
Mice were transplanted with 1×10^6 L1210 (mouse leukemia; ATCC# CCL-219) or L1210MTX (RFC-mediated MTX resistant L1210 mutant; provided by Dr. Y. Assraf, Technion, Israel) cells by injection into the peritoneum (i.p.) (day 1). […] Another group of 8 animals were injected with vehicle solution (2% propylene-glycol, 0.2% Tween-80 in PBS) and serve as control group. […] Mice survival was monitored daily until the end of the experiment on day 21.

[8] = tested on: CEM-MTX (MTX-resistant mutant of CEM, mutation in the RFC); test: MTT cell growth inhibition, MTX-resistant CEM-MTX cells (Example 4); type: cell-based, human; details: Homo sapiens; 72 hours, MTT assay; read-out: EC50, nMol CEM-MTX
Procedure: A series of methotrexate derivatives were screened for their inhibitory effect on cell growth. Three tumor cell lines were used for this screen: i) human leukemia cell line CCRF-CEM which is MTX-sensitive (herein denoted as CEM), ii) a mutant of CEM cell line which is MTX-resistant due to a mutation in the RFC (herein denoted as CEM-MTX; provided by Dr. Y. Assraf, Technion, Israel), and iii) rat C6 glioma cell line.
(§4) Cells were seeded at a density of 10^4 cells/ml in RPMI medium supplemented with 10% FCS in 96 well plates. The cultured cells were incubated, during their linear growth phase, in the presence and absence of various concentrations of MTX derivatives. The tested compounds were prepared as 1 mM stock in absolute ethanol or DMSO and were diluted into the medium. The highest vehicle presence in the assay was 5% of the vehicle. After 72 hours at 37° C. the cytotoxic effect on the cells was estimated by using the colorimetric MTT assay (Mosmann (1983) J. Immunol Methods 65: 55-63) that measures mitochondrial reductase activity and serves for quantitative assessment of cellular viability. Drug concentration required for inhibiting the growth of 50% of cell population in culture over a 72 hour period incubation, is defined as EC50.
The EC50 values were calculated from dose response curves for each tested compound.

[9] = tested on: N87; test: MTT cytotoxicity on tumor cell lines, N87 (Example 8); type: cell-based; details: N87, Gastric carcinoma (human), 72 hours
Procedure: as §3

[10] = tested on: Friend cells (an erythroleukemic cell line); test: MTT cytotoxicity, Friend cells (Example 5); type: cell-based; details: 72 hour
Procedure: The toxicity of methotrexate derivatives of the invention (DP-MTX) was evaluated in an additional cell-culture system. The doses required to inhibit the growth of cultured Friend cells (an erythroleukemic cell line) by 50%, over a 72 hour period (ED50), were determined using a mitochondrial viability (MTT) endpoint assay.
Friend cells were seeded at a density of 10^4 cells/ml in RPMI medium supplemented with 10% FCS in 96 well plates. The cultured cells were incubated, during their linear growth phase, in the presence and absence of various concentrations of MTX derivatives. After 72 hours at 37° C., cell viability was estimated by using the colorimetric MTT assay.

[11] = tested on: rat C6 glioma cell line; test: MTT cell growth inhibition, C6 glioma cells (Example 4); type: cell-based; details: Rattus norvegicus, C6 glioma; 72 hours, MTT assay; read-out: EC50, nMol C6 glioma
Procedure: as §4, with “A series of methotrexate derivatives were screened for their inhibitory effect on cell growth. Three tumor cell lines were used for this screen: i) human leukemia cell line CCRF-CEM which is MTX-sensitive (herein denoted as CEM), ii) a mutant of CEM cell line which is MTX-resistant due to a mutation in the RFC (herein denoted as CEM-MTX; provided by Dr. […], Technion, Israel), and iii) rat C6 glioma cell line. Cells” for “Cells”, “[…] The EC50 values were calculated from dose response curves” for “Drug concentration required”, “each tested compound.” for “inhibiting the growth of 50% of cell population in culture over a 72 hour period incubation, is defined as EC50.”

[12] = tested on: Jurkat; test: MTT cytotoxicity on tumor cell lines, Jurkat (Example 8); type: cell-based; details: Homo sapiens, T-cell lymphoma, 72 hours
Procedure: as §3

[13] = tested on: Du148; test: MTT cytotoxicity on tumor cell lines, Du148 (Example 8); type: cell-based; details: Du148, Prostate cancer (human), 72 hours
Procedure: as §3

[14] = 10 μM Leucovorin, read-out: EC50, nMol + 10 μM Leucovorin
[15] = read-out: EC50, nMol No Leucovorin

## CN(Cc1cnc2nc(N)nc(N)c2n1)c1ccc(C(=O)N[C@@H](CCC(=O)O)C(=O)O)cc1 [MTX, Methotrexate]
[1]
  EC50: 1080 nM
[2]; [14]
  EC50: 20000 ± 12800 nM
[2]; [15]
  EC50: 2540 ± 224 nM
[3]; [14]
  EC50: 910 ± 378 nM
[3]; [15]
  EC50: 23 ± 13 nM
[4]
  EC50: 46 nM
[5]
  EC50: 21 nM
[6]
  EC50: 850 nM
[7]; 3 mg/Kg MTX or molar equivalent, i.p. every two days, day 3 to 17
  mice surviving at the end of the experiment, on day 21: one
[7]; 3 mg/Kg i.p.
  mortality caused by the treatment by itself: no mortality
[7]; 3 mg/Kg i.p. every two days, day 3 to 17
  day on which animal death started: 15 days
[8]
  EC50: 2540 nM
[9]
  EC50: 13500 nM
[10]
  ED50: 10 nmol
[11]
  EC50: 46 nM
[12]
  EC50: 21 nM
[13]
  EC50: 29 nM
